Ends that are not written are not given here.
Assays:
[1] = test system: PMA-stimulated ERK1/2 phosphorylation; assay: Modulation of PMA-stimulated ERK1/2 phosphorylation in COS-7 cells; type: cell-based; conditions: BIM 1 μM, 30 min pretreatment; 100 nM PMA, 15 min
Method: COS-7 cells (from the American Type Culture Collection) were cultured at 37°C in a humidified atmosphere of 95% air, 5% CO2, in DMEM supplemented with 10% FBS, 100 μg/ml streptomycin, and 100 units/ml penicillin (COS-7 growth medium). Transient transfections were performed using LipofectAMINE (Life Technologies: Gaithersburg, MD) as described previously ([27]). Cells were seeded at 8 × 10^5 cells/10-cm dish in COS-7 medium and cultured for 3 days before transfection. COS-7 cells were transfected in 5 ml/dish OptiMEM containing 10 μg/ml LipofectAMINE with empty vector, pcDNA3 encoding the HA-CRF1R or the HA-CRF1R-Δ386 mutant. […]
The protocols for measuring total and phosphorylated ERK1/2, c-Src, PYK2, Akt, and EGFR have been previously published ([28], [29]). […] The labeled bands were quantified using the Quantity One 4.6.3 software program (Bio-Rad).
Figure 2 CRF-induced ERK1/2 phosphorylation is dependent on Gi protein. […] Total cell lysates were separated by SDS-PAGE and analyzed by immunoblotting with anti-p-ERK1/2 Thr^202/Tyr^204, as described in Materials and Methods. ERK1/2 phosphorylation was quantitated by densitometry, and mean values were plotted from five independent experiments. […]
Total cell lysates were separated by SDS-PAGE and analyzed by immunoblotting with anti-p-ERK1/2 Thr202/Tyr204, as described in materials and methods. […]

[2] = test system: CRF1R-mediated ERK1/2 phosphorylation; assay: Modulation of CRF-stimulated ERK1/2 phosphorylation in COS-7 cells expressing HA-CRF1R; type: cell-based; conditions: 30 min pretreatment, 100 nM CRF, 5 min
Method: Plasmid pRK5 encoding the carboxyl terminus of βARK that contains its βγ-binding domain (ct-βARK) was kindly provided by Dr. W. Koch (Center for Translational Medicine, Temple University, Philadelphia, PA), which is a scavenger for G protein βγ subunits ([25]). […] Plasmid pUSEamp encoding dominant-negative Akt-K179M (dn-Akt) was from Upstate Biotechnology (Lake Placid, NY).
COS-7 cells (from the American Type Culture Collection) were cultured at 37°C in a humidified atmosphere of 95% air, 5% CO2, in DMEM supplemented with 10% FBS, 100 μg/ml streptomycin, and 100 units/ml penicillin (COS-7 growth medium). Transient transfections were performed using LipofectAMINE (Life Technologies: Gaithersburg, MD) as described previously ([27]). Cells were seeded at 8 × 10^5 cells/10-cm dish in COS-7 medium and cultured for 3 days before transfection. COS-7 cells were transfected in 5 ml/dish OptiMEM containing 10 μg/ml LipofectAMINE with empty vector, pcDNA3 encoding the HA-CRF1R or the HA-CRF1R-Δ386 mutant. […] After replacing the transfection medium with fresh growth medium, transfected COS-7 cells were cultured for 1 day. Subsequently, cells were re-seeded in 6-well plates and cultured for an additional day prior to the experiment.
(§1) The protocols for measuring total and phosphorylated ERK1/2, c-Src, PYK2, Akt, and EGFR have been previously published ([28], [29]). After cells were cultured to 60–70% confluence, they were serum-deprived for 24 h. On the day of the experiment, cells were treated with the indicated ligands and inhibitors. […] After treatment, cells were placed on ice, the media was aspirated, and the cells were washed twice with ice-cold PBS and lysed in 100 μl of Laemmli sample buffer 1X. The lysates were briefly sonicated, heated at 95°C for 5 min, and centrifuged for 5 min at 14,000 rpm. Resulting supernatants were loaded in separate lanes of a 10% SDS-PAGE gels and electrophoresed. Next, Western transfer on to PDVF membranes was completed. The Western blots were then probed with specific antibodies targeting phosphorylated and non-phosphorylated forms of ERK1/2, c-Src, PYK2, Akt, and EGFR for primary immunodetection. After blots were probed with horseradish peroxidase-conjugated secondary antibody, protein bands were visualized with enhanced chemiluminescence ECL reagent (Amersham Pharmacia Biotech, Piscataway, NJ or Pierce Biotechnology, Rockford, IL) and scanned using the GS-800 Calibrated Imaging Densitometer (Bio-Rad). The labeled bands were quantified using the Quantity One 4.6.3 software program (Bio-Rad).
Total cell lysates were separated by SDS-PAGE and analyzed by immunoblotting with anti-p-ERK1/2 Thr^202/Tyr^204, as described in Materials and Methods. ERK1/2 phosphorylation was quantitated by densitometry, and mean values were plotted from five independent experiments.
Total cell lysates were separated by SDS-PAGE and analyzed by immunoblotting with anti-p-ERK1/2 Thr^202/Tyr^204 (A–D) or anti-p-EGFR Tyr^1068 (E), as described in Materials and Methods. ERK1/2 and EGFR phosphorylation were quantitated by densitometry, and mean values were plotted from three to five independent experiments.
Total cell lysates were separated by SDS-PAGE and analyzed by immunoblotting with anti-p-ERK1/2 Thr^202/Tyr^204, as described in Materials and Methods. ERK1/2 phosphorylation was quantitated by densitometry, and mean values were plotted from three to five independent experiments.

[3] = test system: basal ERK1/2 or Akt phosphorylation; assay: Basal ERK1/2 and Akt phosphorylation in COS-7 cells expressing CRF1R; type: cell-based; conditions: 1 µM BIM, 30 min
Method: as §1, with “After blots were probed with horseradish peroxidase-conjugated secondary antibody, protein bands were visualized with enhanced chemiluminescence ECL reagent (Amersham Pharmacia Biotech, Piscataway, NJ or Pierce Biotechnology, Rockford, IL) and scanned using the GS-800 Calibrated Imaging Densitometer (Bio-Rad).” left out, “(Bio-Rad). […]” for “(Bio-Rad).”
Total cell lysates were separated by SDS-PAGE and analyzed by immunoblotting with anti-p-Akt Ser473 or anti-p-ERK1/2 Thr202/Tyr204, as described in materials and methods. […]

[4] = test system: CRF1R-expressing SK-N-MC neuroblastoma cells; assay: ERK1/2 phosphorylation in CRF1R-expressing SK-N-MC neuroblastoma cells; type: cell-based; conditions: 100 ng/ml FGF, 2 or 5 min
Method: as §1, with “After blots were probed with horseradish peroxidase-conjugated secondary antibody, protein bands were visualized with enhanced chemiluminescence ECL reagent (Amersham Pharmacia Biotech, Piscataway, NJ or Pierce Biotechnology, Rockford, IL) and scanned using the GS-800 Calibrated Imaging Densitometer (Bio-Rad).” left out
Supplementary Figure S2. […] Total cell lysates were separated by SDS-PAGE and analyzed by immunoblotting with anti-p-ERK1/2 Thr202/Tyr204, as described in materials and methods. […]

[5] = test system: CATH.a, rat fetal microglial, locus coeruleus, and transfected CHO cells; conditions: H89; cited from earlier work
Text: (§2) Defining the molecular mechanisms for ERK1/2 signaling by a GPCR has become a significant focus of signal transduction research due to the multifaceted pathways mediating signaling via the ERK1/2-MAP kinase cascade. A significant role of the ERK1/2-MAP kinase pathway has been recognized in the biological action of both CRF1R and CRF2R. ERK1/2 is widely distributed in the brain and is considered an essential regulator of the molecular processes involved in response to stress ([6], [64]). It is well-established that most GPCRs signal via ERK1/2-MAP kinase cascades through distinct Gi-, Gs-, and ...

[6] = test system: fetal hippocampal cells; conditions: H89 pretreatment; cited from earlier work
Text: as §2

[7] = test system: EGFR; conditions: Ucn1, CRF1R-expressing HEK293; cited from earlier work

CN(C)CCCn1cc(C2=C(c3c[nH]c4ccccc34)C(=O)NC2=O)c2ccccc21 [BIM, bisindolylmaleimide I]
effect on PMA-induced ERK1/2 phosphorylation [1]: inhibited ERK1/2 phosphorylation resulting from PMA-induced PKC activation
CRF-stimulated ERK1/2 activation, fold increase ([2]; BIM 1 μM): ~ 1.6 -fold increase over CRF stimulation
effect on basal ERK1/2 activation [3]: small increase in ERK1/2 activation

fibroblast growth factor
ERK1/2 phosphorylation [4]: induced strong ERK1/2 phosphorylation

O=S(=O)(NCCNC/C=C/c1ccc(Br)cc1)c1cccc2cnccc12 [H89]
effect on CRF1R-mediated ERK signaling [5]: failed to inhibit CRF1R-mediated ERK signaling
effect on CRF1R-mediated ERK phosphorylation [6]: only produced a small reduction in CRF1R-mediated ERK phosphorylation
effect on CRF-stimulated ERK1/2 phosphorylation ([2]; H89 500 nM): failed to inhibit CRF-stimulated ERK1/2 phosphorylation

Ucn1: urocortin 1 (DNPSLSIDLTFHLLRTLLELARTQSQRERAEQNRIIFDSV; ends and bridges not checked; UniProt P55089 83-122, looked up)
EGFR transactivation [7]: stimulated EGFR transactivation

— paper PMC6921279 (Frontiers in Endocrinology, 2019)
